The test system of experiment [1] is HEK293. Description: NOD1 signaling inhibitors, primary screen, cell-based, luminescence, uHTS (AID 1578). It is filed as functional. The conditions noted are these: Homo sapiens.
Experiment [2] deals with HEK293. Description: cells. It is filed as functional, cell-based. The conditions noted are these: Homo sapiens.
Experiment [3] is described as follows: HepG2 cell cytotoxicity, dose response, cytotoxicity control for non-replicating M. tuberculosis project (AID 489018). It is filed as functional. The conditions noted are these: Mycobacterium tuberculosis.
The target of experiment [4] is Polyadenylate-binding protein 1 (Homo sapiens, UniProt P11940). Description: PABP1 MLLE–PAM2 binding inhibitor potency, dose response, biochemical, fluorescence polarization, FITC-PAM2 peptide (AID 602259). It is filed as functional. The conditions noted are these: read-out: IC50_Mean.
Chain of Polyadenylate-binding protein 1 (P11940 whole entry): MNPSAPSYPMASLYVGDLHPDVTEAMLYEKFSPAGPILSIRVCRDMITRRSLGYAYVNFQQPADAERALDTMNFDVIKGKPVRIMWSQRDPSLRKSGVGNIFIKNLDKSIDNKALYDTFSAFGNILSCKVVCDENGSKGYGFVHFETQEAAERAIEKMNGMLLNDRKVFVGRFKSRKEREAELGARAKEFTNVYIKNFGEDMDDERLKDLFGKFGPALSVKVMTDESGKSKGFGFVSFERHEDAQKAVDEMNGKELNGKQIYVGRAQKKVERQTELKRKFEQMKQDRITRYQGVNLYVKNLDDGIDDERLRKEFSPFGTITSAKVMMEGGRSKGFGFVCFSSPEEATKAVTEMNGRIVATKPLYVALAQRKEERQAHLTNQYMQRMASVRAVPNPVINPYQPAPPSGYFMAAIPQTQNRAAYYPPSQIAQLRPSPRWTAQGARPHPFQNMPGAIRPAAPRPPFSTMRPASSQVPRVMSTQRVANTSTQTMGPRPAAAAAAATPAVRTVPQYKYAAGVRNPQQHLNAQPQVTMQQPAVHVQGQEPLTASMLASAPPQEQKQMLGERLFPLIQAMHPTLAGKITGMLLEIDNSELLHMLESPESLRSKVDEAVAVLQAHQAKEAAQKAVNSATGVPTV
Experiment [5] has as its target T1, Histone-lysine N-methyltransferase NSD2 (Homo sapiens, UniProt O96028).
T1 sequence (O96028 whole entry): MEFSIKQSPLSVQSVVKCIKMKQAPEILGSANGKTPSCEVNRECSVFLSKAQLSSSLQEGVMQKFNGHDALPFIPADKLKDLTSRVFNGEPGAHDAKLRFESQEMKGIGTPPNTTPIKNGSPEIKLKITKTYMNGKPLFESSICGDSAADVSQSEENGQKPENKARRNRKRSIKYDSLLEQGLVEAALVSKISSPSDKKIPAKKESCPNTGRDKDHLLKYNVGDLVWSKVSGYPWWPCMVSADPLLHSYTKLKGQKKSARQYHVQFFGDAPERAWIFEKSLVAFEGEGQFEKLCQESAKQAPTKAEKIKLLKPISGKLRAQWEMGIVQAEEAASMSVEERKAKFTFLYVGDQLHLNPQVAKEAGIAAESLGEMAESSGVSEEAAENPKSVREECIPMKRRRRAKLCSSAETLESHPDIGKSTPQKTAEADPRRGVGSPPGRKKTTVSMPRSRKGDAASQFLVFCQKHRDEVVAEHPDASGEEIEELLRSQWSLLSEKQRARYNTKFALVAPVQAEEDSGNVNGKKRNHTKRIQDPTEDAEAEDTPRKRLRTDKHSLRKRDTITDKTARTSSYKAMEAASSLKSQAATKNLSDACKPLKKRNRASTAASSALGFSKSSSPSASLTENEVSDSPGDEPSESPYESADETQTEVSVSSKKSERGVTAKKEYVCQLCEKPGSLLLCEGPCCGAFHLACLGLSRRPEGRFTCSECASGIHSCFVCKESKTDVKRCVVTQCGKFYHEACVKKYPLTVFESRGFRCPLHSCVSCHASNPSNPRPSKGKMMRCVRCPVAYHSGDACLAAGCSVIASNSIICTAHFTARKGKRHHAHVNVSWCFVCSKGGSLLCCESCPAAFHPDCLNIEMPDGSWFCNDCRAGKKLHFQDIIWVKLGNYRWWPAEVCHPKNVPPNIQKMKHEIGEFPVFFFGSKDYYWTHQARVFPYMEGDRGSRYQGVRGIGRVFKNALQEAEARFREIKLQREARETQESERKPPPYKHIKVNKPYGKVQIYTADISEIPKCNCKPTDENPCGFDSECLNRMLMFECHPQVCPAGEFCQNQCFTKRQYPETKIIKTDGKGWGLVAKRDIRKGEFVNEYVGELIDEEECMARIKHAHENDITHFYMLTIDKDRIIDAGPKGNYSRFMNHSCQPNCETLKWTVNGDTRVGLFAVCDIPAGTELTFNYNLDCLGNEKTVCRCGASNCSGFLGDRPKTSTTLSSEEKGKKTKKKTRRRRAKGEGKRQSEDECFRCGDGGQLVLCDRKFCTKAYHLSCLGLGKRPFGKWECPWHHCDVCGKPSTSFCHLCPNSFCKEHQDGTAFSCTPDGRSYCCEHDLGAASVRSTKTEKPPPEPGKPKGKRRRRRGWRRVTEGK
In kind it is biochemical.

The target in experiment [6] is T2, Tyrosyl-DNA phosphodiesterase 2 (Homo sapiens, UniProt O95551).
T2 sequence (O95551 whole entry): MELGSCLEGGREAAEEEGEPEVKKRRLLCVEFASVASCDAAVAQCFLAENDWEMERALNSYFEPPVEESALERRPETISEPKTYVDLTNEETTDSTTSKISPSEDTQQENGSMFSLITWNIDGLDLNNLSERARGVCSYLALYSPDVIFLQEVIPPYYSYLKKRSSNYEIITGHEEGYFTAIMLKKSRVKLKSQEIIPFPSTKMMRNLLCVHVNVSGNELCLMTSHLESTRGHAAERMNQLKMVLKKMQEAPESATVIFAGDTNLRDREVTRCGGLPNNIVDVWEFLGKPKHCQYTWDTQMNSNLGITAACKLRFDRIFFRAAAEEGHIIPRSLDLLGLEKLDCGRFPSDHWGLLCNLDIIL
Description: human TDP2 enzyme inhibitors, dose response, biochemical, epi absorbance, IC50 (AID 743297).

Experiment [7] addresses T3, Sphingosine 1-phosphate receptor 4 (Homo sapiens, UniProt O95977).
T3 sequence (O95977 whole entry): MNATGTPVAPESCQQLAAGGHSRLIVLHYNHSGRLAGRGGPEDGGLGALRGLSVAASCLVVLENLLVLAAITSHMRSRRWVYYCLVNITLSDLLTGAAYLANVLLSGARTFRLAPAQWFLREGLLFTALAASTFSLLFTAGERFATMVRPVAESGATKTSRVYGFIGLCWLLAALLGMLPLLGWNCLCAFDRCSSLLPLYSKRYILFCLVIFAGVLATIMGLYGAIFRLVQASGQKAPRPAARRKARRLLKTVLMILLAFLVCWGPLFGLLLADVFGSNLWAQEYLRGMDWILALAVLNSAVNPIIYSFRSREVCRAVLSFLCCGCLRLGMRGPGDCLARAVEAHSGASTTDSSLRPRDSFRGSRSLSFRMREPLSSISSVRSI
Description: Late stage fluorescence dose response cell-based screening assay for antagonists of the Sphingosine 1-Phosphate Receptor 4 (S1P4). [Related pubchem assays: 1524 (Confirmation screen (S1P4 antagonists).), 1510 (Primary screen (S1P4 antagonists).), 1853 (Summary AID (S1P4 antagonists).), 1692 (Dose response screen (S1P4 antagonists).)]. In kind it is functional.

The target in experiment [8] is T3, Sphingosine 1-phosphate receptor 4. Description: Fluorescence dose response cell-based high throughput screening assay for antagonists of the Sphingosine 1-Phosphate Receptor 4 (S1P4). [Related pubchem assays: 1524 (Confirmation in triplicates.), 1510 (Primary screen.)]. In kind it is functional.
Experiment [9] in a line: HeLa cell cytotoxicity, dose response, cytotoxicity control for MgcRacGAP inhibitor project (AID 624300). In kind it is functional.

From ChEMBL document CHEMBL1201862, “PubChem BioAssay data set” (2004) come the findings set out here.

Activity calls are given as the source filed them. Bounds are passed on as bounds.

Usually EC50 stands for the concentration that produces a half-maximal response. For orientation: CC50 means the concentration giving 50% cytotoxicity. With `O=C(CNc1cccc2ccccc12)N/N=C/c1ccc([N+](=O)[O-])o1`, the EC50 in [1] is 3.28 µM (active). In [2], the IC50 was 14.3 µM (active). Moreover, the 50% cytotoxic concentration (CC50) in experiment [3] was 17.5 µM (active).

One may read the AC50 as the midpoint of the concentration-response curve, whichever way the signal moves. For `O=C(O)CSc1cc(NS(=O)(=O)c2ccc(Br)cc2)c2ccccc2c1O`, the IC50 is > 66 µM (inactive) in experiment [4] and 37.2 µM (inactive) in experiment [6]. Also, in experiment [5], the AC50 was 1.65 µM (active).

`Cc1ccc(NC(=O)C2=C(c3ccccc3)S(=O)(=O)CCS2(=O)=O)cc1`: the IC50 in [7] is 3.72 µM (not active); in [8], 1.04 µM (active). Further, the CC50 in experiment [9] was 100 µM (active).
